Reference: ChEMBL document CHEMBL1156738, “Design, synthesis and evaluation of novel oxazaphosphorine prodrugs of 9-(2-phosphonomethoxyethyl)adenine (PMEA, adefovir) as potent HBV inhibitors” (Bioorg Med Chem Lett, 2009)

Experiments:
[1] = Selectivity index, ratio of CC50 for human HepG2(2.2.15) cells to IC50 for Hepatitis B virus; format: functional
Hepatitis B virus [2] = assay: Antiviral activity against Hepatitis B virus infected HepG2(2.2.15) cells assessed as inhibition of viral cytoplasmic DNA synthesis by real-time PCR; format: functional, organism-based
[3] = Cytotoxicity against human HepG2(2.2.15) cells; format: cell-based
[4] = Metabolic stability in human liver microsomes assessed as half life; format: ADME, Microsome
Homo sapiens = species on record: Homo sapiens; assay: Metabolic stability in human plasma assessed as half life
Hepatitis B virus [5] = assay: Ratio of compound IC50 to adefovir dipivoxil IC50 for Hepatitis B virus; format: functional

SMILES | Ratio CC50/IC50 [1] | IC50 (Hepatitis B virus [2]) | CC50 [3] | half-life [4] | half-life (Homo sapiens) | Ratio (Hepatitis B virus [5])
CCC(C)[C@@H](C(=O)OC)N1CCCOP1(=O)COCCn1cnc2c(N)ncnc21.O=C(O)/C=C/C(=O)O (some centres not stated) | 293 | 2.21 µM | 648 µM |  |  | 
COC(=O)[C@H](C)N1CCCO[P@@]1(=O)COCCn1cnc2c(N)ncnc21.O=C(O)/C=C/C(=O)O | 649 | 0.91 µM | 590 µM |  |  | 
COC(=O)[C@H](Cc1ccccc1)N1CCCOP1(=O)COCCn1cnc2c(N)ncnc21.O=C(O)/C=C/C(=O)O (some centres not stated) | 277 | 2.62 µM | 726 µM |  |  | 
COC(=O)[C@H](C(C)C)N1CCCO[P@@]1(=O)COCCn1cnc2c(N)ncnc21.O=C(O)/C=C/C(=O)O |  |  |  | > 6 h |  | 
CCOC(=O)[C@@H](C(C)C)N1CCCO[P@]1(=O)COCCn1cnc2c(N)ncnc21.O=C(O)/C=C/C(=O)O | 8 | 50 µM | 400 µM |  |  | 
COC(=O)[C@H](C(C)C)N1CCCO[P@]1(=O)COCCn1cnc2c(N)ncnc21.O=C(O)/C=C/C(=O)O | 4800 | 0.12 µM | 577 µM | 3.6 h | > 6 h | 3
CCOC(=O)[C@H](C(C)C)N1CCCO[P@@]1(=O)COCCn1cnc2c(N)ncnc21.O=C(O)/C=C/C(=O)O | 9 | 50 µM | 468 µM |  |  | 
COC(=O)[C@H](C)N1CCCO[P@]1(=O)COCCn1cnc2c(N)ncnc21.O=C(O)/C=C/C(=O)O | 1270 | 0.51 µM | 650 µM |  |  | 
CC(C)OC(=O)[C@H](C(C)C)N1CCCO[P@]1(=O)COCCn1cnc2c(N)ncnc21.O=C(O)/C=C/C(=O)O | 103 | 5.76 µM | 592 µM |  |  | 
CCOC(=O)[C@H](C(C)C)N1CCCO[P@]1(=O)COCCn1cnc2c(N)ncnc21.O=C(O)/C=C/C(=O)O | 187 | 3 µM | 560 µM |  |  | 
CCOC(=O)[C@@H](C(C)C)N1CCCO[P@@]1(=O)COCCn1cnc2c(N)ncnc21.O=C(O)/C=C/C(=O)O | 9 | 50 µM | 439 µM |  |  | 
COC(=O)[C@H](CC(C)C)N1CCCOP1(=O)COCCn1cnc2c(N)ncnc21.O=C(O)/C=C/C(=O)O (some centres not stated) | 694 | 0.32 µM | 222 µM |  |  | 
COC(=O)CN1CCCOP1(=O)COCCn1cnc2c(N)ncnc21.O=C(O)/C=C/C(=O)O (racemic) | 683 | 0.88 µM | 602 µM |  |  | 
CC(C)(C)C(=O)OCOP(=O)(COCCn1cnc2c(N)ncnc21)OCOC(=O)C(C)(C)C [ADEFOVIR DIPIVOXIL] |  | 0.33 µM | 555 µM |  |  | 
